Experimental data published in patent EP0049683A2, “Imidazo-rifamycines, process for their preparation, pharmaceutical preparations containing them and their use” (CIBA-GEIGY AG, priority 1980, dated 1982).

Tests used:
Experiment in all cases: Agar dilution MIC in DST agar (Ericsson and Sherris)
Format in all cases: cell-based
Escherichia coli 2018 = settings: in vitro
From the text: (§1) Die antibiotische Aktivität der Testverbindungen in vitro wurde durch die Agarverdünnungsmethode nach Ericsson, H.M., und Sherris, S.C., 1971, Acta Path. Microb. Scand. Section B, Suppl. No. 217, Bd. 1-90, in DST Agara ermittelt. Die gefundenen, das Wachstum der Testorganismen noch hemmenden Minimalkonzentrationen (MIC = minimum inhibiting concentrations) werden in Mikrogramm pro Milliliter (µg/ml) für die geprüften Verbindungen in der Tabelle 1 angegeben.

Escherichia coli 205 = settings: in vitro
From the text: as §1

Proteus morganii 1518 = settings: in vitro
From the text: as §1

Proteus morganii 2359 = settings: in vitro
From the text: as §1

[1] = tested on: Pseudomonas aeruginosa K 799/61; settings: in vitro, agar dilution, DST agar
From the text: as §1

[2] = tested on: Salmonella Typhimurium 277; settings: in vitro
From the text: as §1

[3] = tested on: Staphylococcus aureus 10B; settings: in vitro
From the text: as §1

[4] = tested on: Staphylococcus aureus 2999; settings: in vitro
From the text: as §1

Row | Substance | MIC Esch. 2018 (Escherichia coli 2018) [µg/mL] | MIC Esch. 205 (Escherichia coli 205) [µg/mL] | MIC Prot. 1518 (Proteus morganii 1518) [µg/mL] | MIC Prot. 2359 (Proteus morganii 2359) [µg/mL] | MIC Pseu. 799 [1] [µg/mL] | MIC Salm. 277 [2] [µg/mL] | MIC Staph. 10B [3] [µg/mL] | MIC Staph. 2999 [4] [µg/mL]
1 | 4-(3-Diethylaminocarbonyl-1-piperidyl)-imidazolo[4,5-c]-rifamycin SV [Verbindung 26] | 32 | 16 | 16 | 16 | 16 | 84 | 0.05 | 0.01
2 | 4-(4-Butylpiperazinyl)-imidazolo[4,5-c]rifamycin SV [Verbindung 33] | 2 | 8 | 4 | 4 | 32 | 32 | 0.001 | 0.001
3 | 4-(4-Ethoxycarbonylpiperazinyl)-imidazolo[4,5-c]rifamycin SV [Verbindung 67] | 16 | 16 | 16 | 16 | 32 | 64 | 0.005 | 0.005
4 | 4-(4-Isobutyl-2,5-dimethyl-piperazinyl)-imidazolo[4,5-c]-rifamycin SV [Verbindung 76] | 8 | 32 | 8 | 8 | 32 | 32 | 0.01 | 0.01
5 | 4-(4-Isobutyl-perhydrct-1,4-diazepinyl)-imidazolo(4,5-c]-rifamycin SV [Verbindung 77] | 8 | 8 | 8 | 8 | 8 | 32 | 0.01 | 0.01
6 | 4-(4-Isobutyrylpiperazinyl)-imidazolo[4,5-c]rifamycin SV [Verbindung 70] | 32 | 32 | 32 | 32 | 128 | 128 | 0.02 | 0.02
7 | 4-(4-Isopropylcarbamoylmethylpiperazinyl)-imidazolo-[4,5-c]rifamycin SV [Verbindung 72] | 32 | 32 | 32 | 32 | 64 | 128 | 0.05 | 0.05
8 | 4-(4-Methoxycarbonylmethylpiperazinyl)-imidazolo[4,5-c]-rifamycin SV [Verbindung 71] | 32 | 32 | 32 | 32 | 128 | 128 | 0.02 | 0.02
9 | 4-(4-Morpholinocarbonylmethylpiperazinyl)-imidazolo-[4,5-c]rifamycin SV [Verbindung 73] | 128 | 128 | 32 | 32 | 128 | 128 | 0.05 | 0.05
10 | 4-(4-Propyliperazinyl)-imidazolo[4,5-c]rifamycin SV [Verbindung 32] | 8 | 8 | 8 | 8 | 8 | 32 | 0.001 | 0.001
11 | 4-(N-Benzyl-N-methylamino)-imidazolo[4,5-c]rifamycin SV [Verbindung 12] | 8 | 8 | 1 | 8 | 8 | 32 | 0.001 | 0.001
12 | 4-[4-(1-Methyl-2-dimethylaminoethyl)-piperazinyl]-imidazolo[4,5-c]rifamycin SV [Verbindung 74] | 32 | 128 | 32 | 32 | 128 | 128 | 0.5 | 0.5
13 | 4-[4-(2,2-Diethoxyethyl)-piperazinyl]-imidazolo[4,5-c]-rifamycin SV [Verbindung 66] | 16 | 16 | 16 | 16 | 32 | 128 | 0.01 | 0.01
14 | 4-[4-(2,2-Dimethoxyethyl)-piperazinyl]-imidazolo- [4,5-c]rifamycin SV [Verbindung 65] | 32 | 32 | 32 | 32 | 32 | 128 | 0.05 | 0.01
15 | 4-[4-(2-Dimethylaminoethyl)-piperazinyl-imidazolo[4,5-cl- rifamycin SV [Verbindung 69] | 32 | 32 | 32 | 32 | 128 | 128 | 0.05 | 0.05
16 | 4-[4-(2-Ethoxyethyl)-piperazinyl]-imidazolo[4,5-c] rifamycin SV [Verbindung 64] | 16 | 16 | 16 | 16 | 16 | 64 | 0.01 | 0.005
17 | 4-[4-(2-Methoxyethyl)-piperazinyl]-imidazolo[4,5-c]rifamycin SV [Verbindung 63] | 8 | 16 | 8 | 8 | 32 | 32 | 0.01 | 0.01
18 | 4-[4-(2-Methyl-3-phenyl-propyl)-piperazinyl]-imidazolo- [4,5-c]rifamycin SV [Verbindung 58] | – | 16 | 16 | 16 | 16 | 32 | 0.005 | 0.005
